Type in all cases: cell-based
Assay [1] deals with Caov-3 cells. Nature of the assay: XTT viability assay in Caov-3 cells. As for the experimental part:
Caov-3 or Ovcar-3 cells were plated at a density of 1×10^4 cells per well into a 96-well tissue culture plate. The cell number was determined using the Countess™ automated cell counter (Life Technologies). Where indicated paclitaxel and IGF-1 were added. The final volume of the tissue culture medium was 0.1 ml. Prior to the experiment for each 96 well plate, 5 ml XTT solution and 0.1 ml activation reagent (New England Biolabs; Cat. No. 9095S) were mixed. 50 μl of the activated solution was added to each well and incubated at 37° C. for 4 hrs. The plates were shaken gently to evenly distribute the dye in the wells. After the 4 hrs incubation the absorbance of the samples was measured using a Spectramax M5e plate reader (Molecular Devices; Mod. No. M5e) at a wavelength of 450 nm.
(In general: Formazan colour is commonly taken as a measure of viable cells.)

The test system of assay [2] is Ovcar-3 cells. Nature of the assay: XTT viability assay in Ovcar-3 cells. The conditions noted are these: 25 nM paclitaxel for 24 hrs (5x the concentration used in Caov-3).
Protocol: Caov-3 cells (ATCC® HTB-75™) were cultured in DMEM (Life Technologies; Cat. No. 31966-021) supplemented with 10% FBS (Life Technologies; Lot #41Q822OK) and GlutaMAX™ (Life Technologies; Cat. No. 35050-038). Ovcar-3 cells (ATCC® HTB-161™) were cultured in RPMI 1640 (LGC Standards; Cat. No. 30-2001) supplemented with 20% FBS (Life Technologies) and 10 μg/ml bovine insulin (Sigma Aldrich, Cat. No. 10516). Cells were cultured at 37° C. with 5% CO2 and ≧95% humidity. Cells were harvested following incubation with TrypLE™ Express (Life Technologies; Cat. No. 126005-010). Cell density and viability were determined by trypan blue exclusion using a Countess® Automated Cell Counter (Life Technologies; Mod No. C10281). […] Where indicated, Caov-3 cells were treated with 100 ng/ml IGFR blocking antibody (Millipore; Lot #30080) for 24 hrs, 100 ng/ml IGF-1 (Life Technologies; Lot #73159414A) for 48 hrs or 5 nM paclitaxel (Taxol® Sigma Aldrich; Lot #091M1781V) for 24 hrs. Ovcar-3 cells, where indicated, were treated with 100 ng/ml IGF-1 for 48 hrs or 25 nM paclitaxel for 24 hrs. […] The cell number was determined using the Countess™ automated cell counter (Life Technologies). […] After the 4 hrs incubation the absorbance of the samples was measured using a Spectramax M5e plate reader (Molecular Devices; Mod. No. M5e) at a wavelength of 450 nm.
Assay [3] concerns Caov-3 cells. Nature of the assay: Apoptotic DNA ladder detection in Caov-3 cells. The conditions noted are these: 5 nM paclitaxel for 24 hrs.
Protocol: Caov-3 cells (ATCC® HTB-75TM) were cultured in DMEM (Life Technologies; Cat. No. 31966-021) supplemented with 10% FBS (Life Technologies; Lot #41Q822OK) and GlutaMAXTM (Life Technologies; Cat. No. 35050-038). […] Cells were cultured at 37° C. with 5% CO2 and ≧95% humidity. Cells were harvested following incubation with TrypLETM Express (Life Technologies; Cat. No. 126005-010). Cell density and viability were determined by trypan blue exclusion using a Countess® Automated Cell Counter (Life Technologies; Mod No. C10281). […] Where indicated, Caov-3 cells were treated with 100 ng/ml IGFR blocking antibody (Millipore; Lot #30080) for 24 hrs, 100 ng/ml IGF-1 (Life Technologies; Lot #73159414A) for 48 hrs or 5 nM paclitaxel (Taxol® Sigma Aldrich; Lot #091M1781V) for 24 hrs. Ovcar-3 cells, where indicated, were treated with 100 ng/ml IGF-1 for 48 hrs or 25 nM paclitaxel for 24 hrs. Caov-3 or Ovcar-3 cells were plated into [MUT]^2 culture flasks in a volume of 25 ml. The cells were seeded at 1×10^6 cells per flask as determined using the CountessTM automated cell counter (Life Technologies). Where indicated paclitaxel, IGF-1, or IGF-1+paclitaxel were added. […] DNA was resuspended in 30 μl nuclease-free water (Ambion; Cat. No. AM9937) and was quantified using a NanoVue Plus Spectrophotometer (GE Healthcare). […]
Assay [4] has as its system Ovcar-3 cells. Nature of the assay: Mitotic phase distribution analysis (H3S10ph immunostaining) in Ovcar-3 cells. The following applies: 100 ng/ml IGF-1 for 48 hrs, vs untreated, p=0.055.
The test system of assay [5] is Ovcar-3 cells. The assay can be described thus: Invasion assay (Matrigel Boyden chamber) in Ovcar-3 cells. The conditions noted are these: 100 ng/ml IGF-1, vs untreated, n=2. The protocol: FBS (10%) mediated cell migration through an extracellular matrix was measured by Boyden chamber assay [(BD Biocoat™ Matrigel invasion chamber) BD Biosciences; Cat. No. 354480)] following the manufacturer's instructions. Briefly, Caov-3 cells were transfected with PAPPA siRNA or control siRNA (negative control) as described above. Caov-3 cells were treated with IGFR blocking antibody or untreated as described previously. Ovcar-3 cells were treated with IGF-1 or untreated as described previously. Prior to transfections or treatments the cells were serum starved for 24 hrs. Caov-3 cells were collected in DMEM medium containing 5% BSA, counted and 0.5×10^5 cells were added to each invasion assay chamber. Ovcar-3 cells were collected in RPMI medium containing 5% BSA, counted and 2×10^5 cells were added to each invasion assay chamber. After incubation for 48 hrs the invasion chamber inserts were washed with PBS, fixed in 4% formaldehyde for 5 min, stained with 0.01% crystal violet or haematoxylin and cells from random areas on the filters were counted.

As for `CC(=O)O[C@H]1C(=O)[C@@]2(C)[C@H]([C@H](OC(=O)c3ccccc3)[C@]3(O)C[C@H](OC(=O)[C@H](O)[C@@H](NC(=O)c4ccccc4)c4ccccc4)C(C)=C1C3(C)C)[C@]1(OC(C)=O)CO[C@@H]1C[C@@H]2O` [paclitaxel], in the assay on Caov-3 cells [1] (5 nM paclitaxel for 24 hrs), the “cell viability (XTT assay)” value is given as “decreased”. Also, in the assay on Ovcar-3 cells [2], the “response to paclitaxel treatment (morphology, XTT viability, apoptosis)” value is recorded as “not responding”. Also, the “apoptosis (DNA apoptosis kit)” value in the assay on Caov-3 cells [3] is “induction of apoptosis”.

With “IGF-1: insulin-like growth factor-1, recombinant, exogenously added (Life Technologies); IGF-1 receptor agonist”, the “mitotic delay (mitotic cells in prophase/prometaphase)” value in the assay on Ovcar-3 cells [4] is “decrease”. In the assay with Ovcar-3 cells [5], the “invasiveness (number of invading cells, Boyden chamber assay)” value is reported as “reduced”. Moreover, the “cell viability (XTT assay)” value in the assay with Caov-3 cells [1] (100 ng/ml IGF-1 for 48 hrs, added alone) is listed as “no effect”.

Values taken from patent US20160299147A1, “SCREENING, DIAGNOSIS, PROGNOSTICATION AND TREATMENT OF OVARIAN CANCER” (AFG TECHNOLOGIES S.À.R.L., priority 2013, published 2016).
